This note sets out measurements from patent US8969589B2, “Compounds acting at multiple prostaglandin receptors giving a general anti-inflammatory response” (Allergan, Inc., priority 2011, dated 2015).

Holding throughout (format): cell-based
For experiment [1], the target named is T1, human prostanoid FP receptor (Homo sapiens, UniProt P43088).
T1 construct: expressed in transfected cells
Nature of the experiment: FLIPR Ca2+ signaling PG antagonist assay, FP stable cell line. The conditions noted are these: antagonist Kb vs standard agonist 17-phenyl-PGF2α; HEK-293 EBNA cells. The protocol:
(§1) The above compounds were tested for PG antagonist activity as follows using human recombinant prostanoid receptor (DP1, EP1-4, FP, IP and TP) stable cell lines:
(§2) In order to measure the response of Gs and Gi coupled prostanoid receptors as a Ca^2+ signal, chimeric G protein cDNAs were used. Stable cell lines over-expressing human prostanoid DP1, EP1-4, FP, IP, and TP receptors were established as follows:
(§3) Briefly, human prostanoid DP1, EP2, and EP4 receptor cDNAs were co-transfected with chimeric Gqs cDNA containing a haemagglutanin (HA) epitope; human prostanoid EP3 receptors were co-transfected with chimeric Gqi-HA; human EP1, FP, IP, and TP receptor cDNAs were expressed with no exogenous G-proteins. Gqs and Gqi chimeric cDNAs (Molecular Devices, Sunnyvale, Calif., U.S.A.), as well as cDNAs of prostanoid receptors, were cloned into a pCEP4 vector with a hygromycin B selection marker. Transfection into HEK-293 EBNA (Epstein-Barr virus nuclear antigen) cells was achieved by the FuGENE 6 transfection Reagent (Roche Applied Science, Indianapolis, Ind., USA). Stable transfectants were selected according to hygromycin resistance. Because Gqs and Gqi contained an HA epitope, G-protein expression was detected by Western blotting analysis using anti-mouse HA monoclonal antibody and horseradish peroxidase (HRP)-conjugated secondary antibody, while functional expression of prostanoid receptors was detected by FLIPR screening (Matias et al., 2004). These stable cell lines were validated using previously published antagonists at 10 μM against serial dilutions of standard agonists by FLIPR functional assays for Ca^2− Signaling (as described below).
(§4) Ca^2+ signaling studies were performed using a FLIPR TETRA system (Molecular Devices, Sunnyvale, Calif., USA) in the 384-format. This is a high-throughput instrument for cell-based assays to monitor Ca^2+ signaling associated with GPCRs and ion channels. Cells were seeded at a density of 5×10^4 cells/well in BioCoat poly-D-lysine coated, black wall, clear bottom 384-well plates (BD Biosciences, Franklin lakes, N.J., USA) and allowed to attach overnight in an incubator at 37° C. The cells were then washed twice with HBSS-HEPES buffer (Hanks' balanced salt solution without bicarbonate and phenol red, 20 mM HEPES, pH 7.4) using an ELx405 Select CW Microplate Washer (BioTek, Winooski, Vt., USA). […] Cells were excited with LED (light emitting diode) excitation at 470-495 nm and emission was measured through an emission filter at 515-575 nm. Assay plates were read for 3.5 minutes using the FLIPR^TETRA. The peak increase in fluorescence intensity was recorded for each well. […]

The target in experiment [2] is T2, human prostanoid DP1 receptor (Homo sapiens, UniProt Q13258).
T2 construct: expressed in transfected cells
T2 sequence (Q13258 1-359): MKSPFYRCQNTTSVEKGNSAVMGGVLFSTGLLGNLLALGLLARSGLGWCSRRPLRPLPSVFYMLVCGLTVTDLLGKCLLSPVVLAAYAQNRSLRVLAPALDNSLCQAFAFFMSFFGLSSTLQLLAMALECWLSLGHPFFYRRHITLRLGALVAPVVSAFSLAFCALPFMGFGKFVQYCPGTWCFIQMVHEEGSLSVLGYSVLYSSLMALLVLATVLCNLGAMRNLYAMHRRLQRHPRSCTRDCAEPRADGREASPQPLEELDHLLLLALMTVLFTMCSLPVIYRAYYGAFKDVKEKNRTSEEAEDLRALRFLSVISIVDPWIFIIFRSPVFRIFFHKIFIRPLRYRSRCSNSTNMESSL
Nature of the experiment: FLIPR Ca2+ signaling PG antagonist assay, DP1 stable cell line. The conditions noted are these: antagonist Kb vs standard agonist BW 245C; HEK-293 EBNA cells with chimeric Gqs. The protocol: as §1, §2, §3, §4

Experiment [3] addresses T3, human prostanoid EP1 receptor (Homo sapiens, UniProt P34995).
T3 construct: expressed in transfected cells
T3 sequence (P34995 1-402): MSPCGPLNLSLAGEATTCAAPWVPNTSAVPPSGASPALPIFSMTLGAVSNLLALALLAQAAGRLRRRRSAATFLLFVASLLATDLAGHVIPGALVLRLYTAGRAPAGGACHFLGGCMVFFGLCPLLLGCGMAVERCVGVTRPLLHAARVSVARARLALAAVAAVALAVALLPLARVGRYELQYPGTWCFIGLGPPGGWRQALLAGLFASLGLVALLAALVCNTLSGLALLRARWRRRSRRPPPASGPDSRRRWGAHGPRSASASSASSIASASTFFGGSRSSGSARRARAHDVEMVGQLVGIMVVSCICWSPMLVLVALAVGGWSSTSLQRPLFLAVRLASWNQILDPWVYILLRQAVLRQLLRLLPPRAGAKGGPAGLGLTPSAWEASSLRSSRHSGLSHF
Nature of the experiment: FLIPR Ca2+ signaling PG antagonist assay, EP1 stable cell line. The conditions noted are these: antagonist Kb vs standard agonist PGE2; HEK-293 EBNA cells. The method, then: as §1, §2, §3, §4

The target of experiment [4] is T4, human prostanoid EP2 receptor (Homo sapiens, UniProt P43116).
T4 construct: expressed in transfected cells
T4 sequence (P43116 whole entry): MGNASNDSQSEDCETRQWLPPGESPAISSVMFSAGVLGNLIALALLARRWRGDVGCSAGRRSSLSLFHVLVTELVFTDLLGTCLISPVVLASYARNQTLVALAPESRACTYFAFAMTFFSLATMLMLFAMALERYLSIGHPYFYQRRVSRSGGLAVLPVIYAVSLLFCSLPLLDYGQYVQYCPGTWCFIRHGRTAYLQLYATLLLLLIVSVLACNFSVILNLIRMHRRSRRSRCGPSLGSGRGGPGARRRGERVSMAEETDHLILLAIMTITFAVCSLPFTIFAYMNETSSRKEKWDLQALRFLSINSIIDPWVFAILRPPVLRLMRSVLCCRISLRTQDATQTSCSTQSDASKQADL
Description: FLIPR Ca2+ signaling PG antagonist assay, EP2 stable cell line. The conditions noted are these: antagonist Kb vs standard agonist PGE2; HEK-293 EBNA cells with chimeric Gqs. The protocol: as §1, §2, §3, §4

In experiment [5] the target is T5, human prostanoid EP3 receptor (Homo sapiens, UniProt P43115).
T5 construct: expressed in transfected cells
T5 sequence (P43115 1-390): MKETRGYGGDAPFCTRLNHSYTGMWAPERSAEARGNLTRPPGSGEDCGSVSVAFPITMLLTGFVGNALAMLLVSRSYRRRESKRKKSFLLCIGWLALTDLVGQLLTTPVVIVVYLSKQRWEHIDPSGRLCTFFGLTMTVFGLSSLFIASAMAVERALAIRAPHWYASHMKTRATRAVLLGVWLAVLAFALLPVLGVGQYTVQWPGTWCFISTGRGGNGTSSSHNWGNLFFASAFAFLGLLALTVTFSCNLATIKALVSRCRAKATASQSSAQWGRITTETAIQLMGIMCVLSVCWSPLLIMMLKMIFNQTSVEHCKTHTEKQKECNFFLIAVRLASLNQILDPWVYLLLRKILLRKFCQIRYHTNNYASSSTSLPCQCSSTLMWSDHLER
Nature of the experiment: FLIPR Ca2+ signaling PG antagonist assay, EP3 stable cell line. The conditions noted are these: antagonist Kb vs standard agonist PGE2; HEK-293 EBNA cells with chimeric Gqi. The protocol: as §1, §2, §3, §4

Experiment [6] deals with T6, human prostanoid EP4 receptor (Homo sapiens, UniProt P35408).
T6 construct: expressed in transfected cells
T6 sequence (P35408 whole entry): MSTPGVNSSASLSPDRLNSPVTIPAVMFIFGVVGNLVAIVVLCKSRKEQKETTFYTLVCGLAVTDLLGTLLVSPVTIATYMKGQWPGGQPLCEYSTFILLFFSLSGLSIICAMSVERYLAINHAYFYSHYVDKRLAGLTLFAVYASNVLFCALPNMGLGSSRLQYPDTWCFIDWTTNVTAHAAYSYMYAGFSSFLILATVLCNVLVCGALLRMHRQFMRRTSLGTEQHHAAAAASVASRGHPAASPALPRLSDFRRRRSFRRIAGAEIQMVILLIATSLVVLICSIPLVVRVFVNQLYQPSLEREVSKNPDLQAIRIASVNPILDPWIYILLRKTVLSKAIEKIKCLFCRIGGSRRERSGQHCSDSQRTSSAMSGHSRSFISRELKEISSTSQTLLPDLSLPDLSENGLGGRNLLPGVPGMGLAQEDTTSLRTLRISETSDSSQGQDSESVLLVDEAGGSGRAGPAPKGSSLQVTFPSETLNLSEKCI
Description: FLIPR Ca2+ signaling PG antagonist assay, EP4 stable cell line. To be noted: antagonist Kb vs standard agonist PGE2; HEK-293 EBNA cells with chimeric Gqs. The protocol:
as §1, §2, §3, §4

The target in experiment [7] is T7, human prostanoid IP receptor (Homo sapiens, UniProt P43119).
T7 construct: expressed in transfected cells
T7 sequence (P43119 whole entry): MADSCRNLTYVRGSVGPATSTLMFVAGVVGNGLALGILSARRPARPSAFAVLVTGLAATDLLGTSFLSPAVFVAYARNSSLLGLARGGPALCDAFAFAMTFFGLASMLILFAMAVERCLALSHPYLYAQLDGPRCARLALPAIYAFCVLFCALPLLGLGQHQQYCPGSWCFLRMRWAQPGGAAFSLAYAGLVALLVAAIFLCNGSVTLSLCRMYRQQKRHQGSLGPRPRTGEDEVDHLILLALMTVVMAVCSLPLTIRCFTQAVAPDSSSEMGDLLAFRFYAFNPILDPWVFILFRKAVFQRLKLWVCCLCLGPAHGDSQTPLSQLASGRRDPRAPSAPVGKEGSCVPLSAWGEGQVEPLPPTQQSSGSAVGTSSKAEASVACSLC
Nature of the experiment: FLIPR Ca2+ signaling PG antagonist assay, IP stable cell line. The conditions noted are these: antagonist Kb vs standard agonist Cicaprost; HEK-293 EBNA cells. The method, then: as §1, §2, §3, §4

For experiment [8], the target named is T8, human prostanoid TP receptor (Homo sapiens, UniProt P21731).
T8 construct: expressed in transfected cells
T8 sequence (P21731 1-343): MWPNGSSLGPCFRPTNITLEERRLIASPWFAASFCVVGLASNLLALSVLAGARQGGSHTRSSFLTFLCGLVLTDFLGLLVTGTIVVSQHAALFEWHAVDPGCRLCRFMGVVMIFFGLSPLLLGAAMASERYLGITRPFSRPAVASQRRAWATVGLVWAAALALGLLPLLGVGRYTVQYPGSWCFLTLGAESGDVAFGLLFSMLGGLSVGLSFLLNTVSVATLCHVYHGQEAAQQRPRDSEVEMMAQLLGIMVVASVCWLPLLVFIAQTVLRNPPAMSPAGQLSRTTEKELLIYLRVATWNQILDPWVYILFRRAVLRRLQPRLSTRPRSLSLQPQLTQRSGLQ
Description: FLIPR Ca2+ signaling PG antagonist assay, TP stable cell line. To be noted: antagonist Kb vs standard agonist U-46619; HEK-293 EBNA cells. The protocol: as §1, §2, §3, §4

T1 sequence (P43088 whole entry): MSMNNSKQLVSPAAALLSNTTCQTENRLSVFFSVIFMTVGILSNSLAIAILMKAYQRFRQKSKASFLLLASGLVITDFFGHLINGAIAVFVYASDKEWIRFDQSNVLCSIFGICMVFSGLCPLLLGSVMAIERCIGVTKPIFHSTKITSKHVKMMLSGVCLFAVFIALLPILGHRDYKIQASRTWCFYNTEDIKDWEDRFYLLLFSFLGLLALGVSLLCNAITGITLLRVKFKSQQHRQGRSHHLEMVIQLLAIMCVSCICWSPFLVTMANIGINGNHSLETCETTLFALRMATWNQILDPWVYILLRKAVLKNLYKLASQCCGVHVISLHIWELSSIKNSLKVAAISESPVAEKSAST

One may read the Kb as the equilibrium dissociation constant of an antagonist, usually derived from a functional assay. A higher Kb goes with lower antagonist affinity. Regarding `CCC(CC)COc1ccc(Br)cc1Cn1nc(OCC(=O)O)cc1C` [Example 1, {1-[5-bromo-2-(2-ethyl-butoxy)-benzyl]-5-methyl-1H-pyrazol-3-yl}-oxaacetic acid], the Kb was 250 nM in experiment [1]; 640 nM in experiment [2]; 40 nM in experiment [3]; at least 10000 nM in experiment [4]; at least 10000 nM in experiment [5]; 130 nM in experiment [6]. Further, the figures for the Kb in experiment [7] and in experiment [8] were 220 nM and 2 nM, respectively.

With `CCC(CC)COc1ccc(Cl)cc1Cn1nc(OCC(=O)O)cc1C` [Example 2, {1-[5-chloro-2-(2-ethyl-butoxy)-benzyl]-5-methyl-1H-pyrazol-3-yloxy}-acetic acid], the antagonist dissociation constant (Kb) in experiment [1] was 980 nM; in experiment [2] it was 500 nM; in experiment [3], 75 nM; in experiment [4], at least 10000 nM; in experiment [5], at least 10000 nM; in experiment [6] it was 350 nM. Further, the antagonist equilibrium constant (Kb) in experiment [7] came out at 600 nM. Further, the “TP (Kb)” value in experiment [8] is “PAg”.

With `Cc1cc(OCC(=O)O)nn1Cc1cc(Cl)ccc1OCc1ccc(Cl)cc1` [Example 3, {1-[5-chloro-2-(4-chloro-benzyloxy)-benzyl]-5-methyl-1H-pyrazol-3-yloxy}-acetic acid], the Kb in experiment [1] is 220 nM; in experiment [2], 1000 nM; in experiment [3], 9 nM; in experiment [4], 340 nM; in experiment [5], 3700 nM; in experiment [6], at least 10000 nM. Moreover, the antagonist equilibrium constant (Kb) in experiment [7] was determined as 500 nM; in experiment [8], 1 nM.

Turning to `Cc1cc(OCC(=O)O)nn1Cc1cc(Cl)ccc1OCC(C)C` [Example 4, [1-(5-chloro-2-isobutoxy-benzyl)-5-methyl-1H-pyrazol-3-yloxy]-acetic acid], the antagonist dissociation constant (Kb) was 1700 nM in experiment [1]; 110 nM in experiment [3]; at least 10000 nM in experiment [4]; at least 10000 nM in experiment [5]; at least 10000 nM in experiment [6]; at least 10000 nM in experiment [7]. Further, the Kb in experiment [8] came out at 15 nM. In addition, in experiment [2], the “DP1 (Kb)” value is “PAg”.
